One data set concerns the target T1, 5-HT3 receptor (Cavia porcellus, UniProt O70212).
T1 construct: From ileum of Hartley male guinea pigs (500 g to 800 g) longitudinal muscle samples of about 20 mm were prepared; from tissue; host or cells: guinea pig ileum longitudinal muscle
T1 sequence (O70212 20-490): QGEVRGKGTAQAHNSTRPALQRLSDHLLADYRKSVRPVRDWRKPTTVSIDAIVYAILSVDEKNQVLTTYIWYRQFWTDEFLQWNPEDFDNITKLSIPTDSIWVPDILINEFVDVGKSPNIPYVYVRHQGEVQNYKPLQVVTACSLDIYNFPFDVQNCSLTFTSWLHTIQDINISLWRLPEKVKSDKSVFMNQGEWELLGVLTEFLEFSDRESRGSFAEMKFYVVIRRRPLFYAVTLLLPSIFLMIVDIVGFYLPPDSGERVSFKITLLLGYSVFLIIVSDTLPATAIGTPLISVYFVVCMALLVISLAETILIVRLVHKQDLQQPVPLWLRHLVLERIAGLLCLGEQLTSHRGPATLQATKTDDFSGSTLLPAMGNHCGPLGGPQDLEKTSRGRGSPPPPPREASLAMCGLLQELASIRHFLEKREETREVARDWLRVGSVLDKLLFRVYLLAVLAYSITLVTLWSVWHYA
Put plainly: Test for 5-HT3 receptor activating action and antagonism, guinea pig ileum longitudinal muscle contraction. The format is cell-based. The settings on record: for inhibition at 10 µM: inhibitory ratio of contraction by 10 μM 5-HT in sample treated beforehand with 10 μM compound, guinea pig ileum longitudinal muscle; for EC50: negative logarithm of molar concentration giving 50% maximum contraction, read-out: Activating action pD2 (converted); for Activating action i.a.: ratio of maximum contraction by compound relative to maximum contraction with 10 μM 5-HT (defined as 1). The protocol: From ileum of Hartley male guinea pigs (500 g to 800 g) longitudinal muscle samples of about 20 mm were prepared. The samples were suspended at a resting tension of about 0.5 g in Magnus tubes, and isometric contraction reaction was measured. The samples were treated beforehand twice with 0.3 μM of 5-HT for 1 hour to desensitize the 5-HT4 receptors, and then given with 5-HT at a concentration of 0.1 to 30 μM to examine dose-dependent contraction reaction via the 5-HT3 receptors. […] The index of the 5-HT3 receptor activating action, i.a., is represented as a ratio of the maximum reaction obtained by each compound relative to the maximum contraction reaction obtained with 10 μM of 5-HT, which is defined to be 1. The index of strength of binding with the 5-HT3 receptor, pD2, is represented with a negative logarithmic value of a concentration (molar concentration) that gave 50% maximum contraction reaction for each compound. As for the antagonistic activity of each compound against the 5-HT3 receptor, inhibitory ratio was calculated, which represents a ratio of contraction obtained by applying 10 μM of 5-HT to a sample treated beforehand with 10 μM of each compound relative to the contraction obtained by applying 10 μM of 5-HT to an untreated sample.

Data set [1] relates to large bowel transportation ability of normal mice. Put plainly: Effect on large bowel transportation ability of normal mice (glass bead excretion). The format is in vivo, mouse. The settings on record: ddY male mice, bead inserted after 30 minutes. The protocol:
G. et al. [Drug Dev. Res., 9, 241-247, (1986)] was determined as follows. Each test compound was orally administered to 5- to 7-week old ddY male mice starved for about 4 hours. […] After the insertion of the glass bead, time (second) from the insertion to excretion of the bead from the anus was measured, and the time was used as an index of large bowel transportation ability. The test was performed by using groups of mice each consisting of 9 to 11 mice, and all of the procedures were performed under no anesthesia.

The subject of data set [2] is rat diarrhea under restriction stress. Put plainly: Inhibitory action for rat diarrhea under restriction stress. The format is in vivo. The settings on record: oral, 30 min before restraint, male Wistar rats, 3 hours, nonlinear least square method. The protocol:
L. Williams et al. [GASTROENTEROLOGY, 94, 611–621 (1988)] was determined as follows, and the results were analyzed by the nonlinear least square method. 8-Week old male Wistar rats were starved from the evening of the day before the test. Each test compound was orally administered to the rats. After 30 minutes, the rats were constrained by binding of their fore-limbs and hind-limbs with wires. The rats were left in individual gages on white sheets under luminescent lamps for 3 hours. […] The test was performed with groups of rats each consisting of 8 rats.

A further data set is described as follows: Reverse mutation test. The protocol:
A reverse mutagenicity test was performed using the compound of Example 1 (b) of the present specification, hydrochloride of 5,7-dimethyl-2-(1-piperazinyl)benzoxazole (C), hydrochloride of 5-chloro-7-methyl-2-(4-methyl-1-piperazinyl)benzoxazole (D), and hydrochloride of 5-chloro-7-methyl-2-(4-methyl-1-homopiperazinyl) benzoxazole (E) (compounds disclosed in Japanese Patent Publication (KOKAI) No. 10-29987/1998), and the compound described in Reference Example 4 of the present specification, i.e., hydrochloride of 5-chloro-7-methyl-2-(1-piperazinyl) benzoxazole (F) according to the method of T. Matsushima et al. (Noropoth K. H., Springer, Berlin-Heidelberg-New York, “Short-Term Test Systems For Detecting Carcinogens”, pp. 273–285, 1980) referred by the guideline 471 of ORGANIZATION FOR ECONOMIC CO-OPERATION AND DEVELOPMENT.

The record followed here is US7045516B1, “Benzoxazole derivatives and drugs containing the same as the active ingredient” (Koichi Shudo, priority 1998, dated 2006).

Like-named read-outs stand apart in the source and are kept apart here.

Usually inhibition stands for the share of the control response that was lost under treatment. `Clc1cc(Cl)c2oc(N3CCCNCC3)nc2c1` [Example 9, 5,7-Dichloro-2-(1-homopiperazinyl) benzoxazole]: at 5-HT3 receptor, the inhibition at 10 µM worked out at 97%, the EC50 is 56.2 nM and the Activating action i.a. came out at 0.13.

With `c1ccc2oc(N3CCCNCC3)nc2c1` [A, 2-(1-homopiperazinyl)benzoxazole, reference compound], at 5-HT3 receptor, the EC50 was 1700 nM and the Activating action i.a. is reported as 0.32.

For the compound `CCc1cc(Cl)cc2nc(N3CCCNCC3)oc12` [Example 4, 5-Chloro-7-ethyl-2-(1-homopiperazinyl) benzoxazole], at 5-HT3 receptor, the inhibition at 10 µM was 89% and the EC50 is 17.8 nM.

`CC(C)(C)OC(=O)Nc1cc(Cl)cc2nc(N3CCCNCC3)oc12` [Example 7, 7-(tert-Butyloxycarbonylamino)-5-chloro-2-(1-homopiperazinyl)benzoxazole]: on 5-HT3 receptor, the inhibition at 10 µM was 83%, the EC50 was 2000 nM and the Activating action i.a. is 0.31.

Take `Cc1cc(Cl)cc2nc(N3CCCN(C)CC3)oc12.Cl` [Hydrochloride of E, hydrochloride of 5-chloro-7-methyl-2-(4-methyl-1-homopiperazinyl)benzoxazole]: the “time from insertion to excretion of glass bead” value is 271.91 s in data set [1] (dose 3 mg/kg oral), 318.95 s in data set [1] (dose 10 mg/kg oral) and 248.56 s in data set [1] (dose 30 mg/kg oral). In data set [2], the ED50 value turned out to be 0.0041 mg/kg. Besides, in “Reverse mutation test”, the reverse mutagenicity entry is “negative”.

Regarding `Clc1cc(NCc2ccccc2)c2oc(N3CCCNCC3)nc2c1` [Example 12, 7-(Benzylamino)-5-chloro-2-(1-homopiperazinyl) benzoxazole], at 5-HT3 receptor, the inhibition at 10 µM was determined as 88%, the EC50 was 191 nM and the Activating action i.a. amounted to 0.05.

For the compound `Cc1cc(Cl)cc2nc(N3CCNCC3)oc12.Cl` [hydrochloride of Compound F, hydrochloride of 5-chloro-7-methyl-2-(1-piperazinyl) benzoxazole], the reverse mutagenicity entry in “Reverse mutation test” (method of Matsushima et al., OECD guideline 471) is “positive”.

One may read the ED50 as the dose at which the effect has come halfway, by size or by number of responders. In the case of `CN1C2CCCC1CC(NC(=O)c1nn(C)c3ccccc13)C2` (stereo not shown) [G, Granisetron], the “time from insertion to excretion of glass bead” value was found to be 206.44 s in data set [1] (dose 3 mg/kg oral), 258.47 s in data set [1] (dose 10 mg/kg oral) and 475.93 s in data set [1] (dose 30 mg/kg oral). In addition, the 50% effect level in data set [2] (Rattus norvegicus) (ED50) was put at a dose of 0.025 mg/kg.

On to `Cc1cc(C)c2oc(N3CCN(C)CC3)nc2c1` [B, 5,7-dimethyl-2-(4-methyl-1-piperazinyl) benzoxazole, reference compound], for which, on 5-HT3 receptor, the EC50 is 479 nM and the Activating action i.a. came to 0.62.

Turning to `Cc1cc2oc(N3CCCNCC3)nc2cc1Cl` [Example 3, 5-Chloro-2-(1-homopiperazinyl)-6-methylbenzoxazole], on 5-HT3 receptor, the inhibition at 10 µM stood at 88%, the EC50 was 191 nM and the Activating action i.a. worked out at 0.08.

As to `Cc1cc(C)c2oc(N3CCNCC3)nc2c1` [C, 5,7-dimethyl-2-(1-piperazinyl)benzoxazole, reference compound], at 5-HT3 receptor, the inhibition at 10 µM is 91%, the EC50 was 70.8 nM and the Activating action i.a. came out at 0.12.

Regarding `COc1cc(Cl)cc2nc(N3CCCNCC3)oc12` [Example 2, 5-Chloro-2-(1-homopiperazinyl)-7-methoxybenzoxazole], at 5-HT3 receptor, the inhibition at 10 µM is 88%, the EC50 is 295 nM and the Activating action i.a. is listed as 0.36.

On to `CC(C)C(=O)Nc1cc(Cl)cc2nc(N3CCCNCC3)oc12.Cl` [Example 16, 5-Chloro-7-isobutyrylamino-2-(1-homopiperazinyl) benzoxazole hydrochloride], for which, on 5-HT3 receptor, the inhibition at 10 µM is 15%, the EC50 is 5620 nM and the Activating action i.a. was 0.10.

For the compound `CC(=O)Nc1cc(Cl)cc2nc(N3CCCNCC3)oc12` [Example 6, 7-Acetamino-5-chloro-2-(1-homopiperazinyl)benzoxazole], at 5-HT3 receptor, the inhibition at 10 µM came out at 90%, the EC50 is 3980 nM and the Activating action i.a. worked out at 0.35.

With `Cc1cc(Cl)cc2nc(N3CCN(C)CC3)oc12` [D, 5-chloro-7-methyl-2-(4-methyl-1-piperazinyl)benzoxazole, reference compound], on 5-HT3 receptor, the inhibition at 10 µM was 94%, the EC50 is 162 nM and the Activating action i.a. was found to be 0.27.

For `Cc1c(Cl)cc2nc(N3CCCNCC3)oc2c1Cl` [Example 10, 5,7-Dichloro-2-(1-homopiperazinyl)-6-methylbenzoxazole], at 5-HT3 receptor, the inhibition at 10 µM was 96%, the EC50 was 56.2 nM and the Activating action i.a. amounted to 0.09.

Take `Cc1cc(Cl)cc2nc(N3CCNCC3)oc12` [F, 5-chloro-7-methyl-2-(1-piperazinyl)benzoxazole, reference compound]: at 5-HT3 receptor, the inhibition at 10 µM came to 90%, the EC50 was 27.5 nM and the Activating action i.a. was 0.14.

Turning to `Cc1c(Cl)cc2nc(N3CCCNCC3)oc2c1C` [Example 11, 5-Chloro-2-(1-homopiperazinyl)-6,7-dimethylbenzoxazole], at 5-HT3 receptor, the inhibition at 10 µM amounted to 89%, the EC50 was 35.5 nM and the Activating action i.a. worked out at 0.14.

As to `Cc1cc(Cl)cc2nc(N3CCCN(C)CC3)oc12` [E, 5-chloro-7-methyl-2-(4-methyl-1-homopiperazinyl) benzoxazole, reference compound], at 5-HT3 receptor, the inhibition at 10 µM worked out at 98%, the EC50 is 21.4 nM and the Activating action i.a. was 0.17.

For the compound `Cc1cc(Cl)cc2nc(N3CCCNCC3)oc12` [Example 1 (a), 5-Chloro-2-(1-homopiperazinyl)-7-methylbenzoxazole], on 5-HT3 receptor, the inhibition at 10 µM was 95%, the EC50 was 33.1 nM and the Activating action i.a. worked out at 0.12.

For `Cl.Nc1cc(Cl)cc2nc(N3CCCNCC3)oc12` [Example 8, 7-Amino-5-chloro-2-(1-homopiperazinyl) benzoxazole hydrochloride], at 5-HT3 receptor, the inhibition at 10 µM was 83%, the EC50 was 437 nM and the Activating action i.a. was found to be 0.55.

Regarding `CS(=O)(=O)Nc1cc(Cl)cc2nc(N3CCCNCC3)oc12.Cl` [Example 14, 5-Chloro-7-methanesulfonylamino-2-(1-homopiperazinyl) benzoxazole hydrochloride], at 5-HT3 receptor, the inhibition at 10 µM is 46%, the EC50 was 3390 nM and the Activating action i.a. amounted to 0.13.
